Source: BindingDB's records for doi:10.1021/jm021084k (2003)

Experiments:
Histamine H3 receptor = Histamine H3 receptor (Cavia porcellus, UniProt Q9JI35); assay: Potency at histamine H3 receptor subtype, was tested on guinea pig right ileum
Histamine H1 receptor = Histamine H1 receptor (Cavia porcellus, UniProt P31389); assay: Potency at histamine H1 receptor subtype, was tested on guinea pig right ileum
Histamine H2 receptor = Histamine H2 receptor (Cavia porcellus, UniProt P47747); assay: Potency at histamine H2 receptor subtype, was tested on guinea pig right atrium
Chain of Histamine H2 receptor (P47747 whole entry): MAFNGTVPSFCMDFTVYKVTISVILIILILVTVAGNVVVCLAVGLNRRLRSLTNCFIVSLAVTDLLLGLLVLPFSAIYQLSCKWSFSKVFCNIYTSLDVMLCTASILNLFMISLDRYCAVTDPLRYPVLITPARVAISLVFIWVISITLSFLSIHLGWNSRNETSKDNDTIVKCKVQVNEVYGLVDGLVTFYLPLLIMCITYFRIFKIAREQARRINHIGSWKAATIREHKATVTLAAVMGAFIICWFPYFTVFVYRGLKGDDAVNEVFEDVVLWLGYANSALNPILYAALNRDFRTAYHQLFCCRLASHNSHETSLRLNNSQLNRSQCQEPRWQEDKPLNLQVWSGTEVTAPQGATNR

Chain of Histamine H3 receptor (Q9JI35 whole entry): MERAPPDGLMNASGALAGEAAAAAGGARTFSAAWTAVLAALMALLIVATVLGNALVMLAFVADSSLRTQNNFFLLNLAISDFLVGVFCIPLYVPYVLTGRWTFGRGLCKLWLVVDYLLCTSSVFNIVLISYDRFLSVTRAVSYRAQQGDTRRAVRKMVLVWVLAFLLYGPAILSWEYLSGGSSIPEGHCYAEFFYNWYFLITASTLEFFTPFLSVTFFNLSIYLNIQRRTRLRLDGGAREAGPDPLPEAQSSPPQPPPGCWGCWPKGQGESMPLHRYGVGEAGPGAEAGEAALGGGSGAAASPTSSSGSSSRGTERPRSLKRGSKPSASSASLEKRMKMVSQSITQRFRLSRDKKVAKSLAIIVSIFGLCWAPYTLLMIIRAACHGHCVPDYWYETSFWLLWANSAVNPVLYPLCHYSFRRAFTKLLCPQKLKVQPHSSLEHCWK
Chain of Histamine H1 receptor (P31389 whole entry): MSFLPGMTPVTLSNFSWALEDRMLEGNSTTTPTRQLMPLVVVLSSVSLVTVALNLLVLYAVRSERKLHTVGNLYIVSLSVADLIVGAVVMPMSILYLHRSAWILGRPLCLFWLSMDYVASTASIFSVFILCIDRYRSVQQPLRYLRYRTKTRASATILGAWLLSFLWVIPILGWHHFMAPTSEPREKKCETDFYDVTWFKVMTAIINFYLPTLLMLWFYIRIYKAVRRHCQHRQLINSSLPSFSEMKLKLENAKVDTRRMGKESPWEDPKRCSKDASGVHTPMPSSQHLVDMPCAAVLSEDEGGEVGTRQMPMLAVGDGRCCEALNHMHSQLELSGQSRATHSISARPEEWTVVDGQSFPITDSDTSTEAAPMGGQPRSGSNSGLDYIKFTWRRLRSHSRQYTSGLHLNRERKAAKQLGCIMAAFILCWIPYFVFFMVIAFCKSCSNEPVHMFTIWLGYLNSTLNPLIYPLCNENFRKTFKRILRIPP

Q: `CC(N=O)c1ccc(OCc2ccc(CN3CCCCC3)cc2)cc1` (stereo not drawn) [1-[4-(4-Piperidin-1-ylmethyl-benzyloxy)-phenyl]-ethanone oxime] was tested. Which Kd (Histamine H3 receptor) did it give?
A: 0.0851 µM

Q: What about the Kd (Histamine H1 receptor) of the same molecule?
A: 7.94 µM

Q: And the Kd (Histamine H2 receptor)?
A: 14.1 µM
